Legend:
Assay type in all cases: in vivo
[1] = system: barnyardgrass (Echinochloa crus-galli); assay: Test G Pre-Emergence Protocol; details: Echinochloa crus-galli, pre-emergence, 312 h, evaluated after 13 days; for pest or weed control at 15.625 g/ha: 15.625 g ai/ha; for pest or weed control at 15.625 g/ha / pest or weed control at 250 g/ha: read-out: Barnyardgrass damage rating (100=total damage to plant; 0=no damage to plant); for pest or weed control at 62.5 g/ha: 62.5 g ai/ha, 100=total damage to plant, 0=no damage to plant, read-out: Barnyardgrass damage rating; for pest or weed control at 250 g/ha: 250 g ai/ha
Outline: (§1)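 Pots of seeds in standard soil were grown for one day in a glasshouse (24/16 °C day/night, 14 h light, 65% humidity), then sprayed with compound in acetone/water 50:50 with 0.5% Tween 20 at 15.625, 62.5 or 250 g/ha. Damage was scored after 13 days on a 0 (none) to 100 (total) scale.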

corn (Zea mays) [2] = assay: Test G Pre-Emergence Protocol; details: Zea mays, pre-emergence, 312 h, evaluated after 13 days; for plant injury at 15.625 g/ha: 15.625 g ai/ha; for plant injury at 15.625 g/ha / plant injury at 250 g/ha: read-out: Corn damage rating (100=total damage to plant; 0=no damage to plant); for plant injury at 62.5 g/ha: 62.5 g ai/ha, 100=total damage to plant, 0=no damage to plant, read-out: Corn damage rating; for plant injury at 250 g/ha: 250 g ai/ha
Outline: as §1

[3] = system: giant foxtail (Setaria faberi); assay: Test G Pre-Emergence Protocol; details: Setaria faberi, pre-emergence, 312 h, evaluated after 13 days; for pest or weed control at 15.625 g/ha: 15.625 g ai/ha; for pest or weed control at 15.625 g/ha / pest or weed control at 250 g/ha: read-out: Foxtail, Giant damage rating (100=total damage to plant; 0=no damage to plant); for pest or weed control at 62.5 g/ha: 62.5 g ai/ha, 100=total damage to plant, 0=no damage to plant, read-out: Foxtail, Giant damage rating; for pest or weed control at 250 g/ha: 250 g ai/ha
Outline: as §1

[4] = system: ivy-leaved morning glory (Ipomoea hederacea); assay: Test G Pre-Emergence Protocol; details: Ipomoea, pre-emergence, 312 h, evaluated after 13 days; for pest or weed control at 15.625 g/ha: 15.625 g ai/ha; for pest or weed control at 15.625 g/ha / pest or weed control at 250 g/ha: read-out: Morningglory, Ivy-leaved damage rating (100=total damage to plant; 0=no damage to plant); for pest or weed control at 62.5 g/ha: 62.5 g ai/ha, 100=total damage to plant, 0=no damage to plant, read-out: Morningglory, Ivy-leaved damage rating; for pest or weed control at 250 g/ha: 250 g ai/ha
Outline: as §1

[5] = system: redroot pigweed (Amaranthus retroflexus); assay: Test G Pre-Emergence Protocol; details: Amaranthus retroflexus, pre-emergence, 312 h, evaluated after 13 days; for pest or weed control at 15.625 g/ha: 15.625 g ai/ha; for pest or weed control at 15.625 g/ha / pest or weed control at 250 g/ha: read-out: Pigweed, Redroot damage rating (100=total damage to plant; 0=no damage to plant); for pest or weed control at 62.5 g/ha: 62.5 g ai/ha, 100=total damage to plant, 0=no damage to plant, read-out: Pigweed, Redroot damage rating; for pest or weed control at 250 g/ha: 250 g ai/ha
Outline: as §1

[6] = system: velvetleaf (Abutilon theophrasti); assay: Test G Pre-Emergence Protocol; details: Abutilon theophrasti, pre-emergence, 312 h, evaluated after 13 days; for pest or weed control at 15.625 g/ha: 15.625 g ai/ha; for pest or weed control at 15.625 g/ha / pest or weed control at 250 g/ha: read-out: Velvetleaf damage rating (100=total damage to plant; 0=no damage to plant); for pest or weed control at 62.5 g/ha: 62.5 g ai/ha, 100=total damage to plant, 0=no damage to plant, read-out: Velvetleaf damage rating; for pest or weed control at 250 g/ha: 250 g ai/ha
Outline: as §1

[7] = system: barnyardgrass (Echinochloa crus-galli); assay: Test G Post-Emergence Protocol; details: Echinochloa crus-galli, post-emergence, 312 h, read-out: Barnyardgrass damage rating; for pest or weed control at 15.625 g/ha: 15.625 g ai/ha, evaluated after 13 days (100=total damage to plant; 0=no damage to plant); for pest or weed control at 62.5 g/ha: 62.5 g ai/ha; for pest or weed control at 62.5 g/ha / pest or weed control at 250 g/ha: evaluated after 13 days, 100=total damage to plant, 0=no damage to plant; for pest or weed control at 250 g/ha: 250 g ai/ha
Outline: (§2)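 Post-emergence herbicidal damage, scored visually 0–100 at 13 days. Application at 15.625, 62.5 or 250 g/ha onto 8-day-old plants grown under glasshouse control.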

corn (Zea mays) [8] = assay: Test G Post-Emergence Protocol; details: Zea mays, post-emergence, 312 h, read-out: Corn damage rating; for plant injury at 15.625 g/ha: 15.625 g ai/ha, evaluated after 13 days (100=total damage to plant; 0=no damage to plant); for plant injury at 62.5 g/ha: 62.5 g ai/ha; for plant injury at 62.5 g/ha / plant injury at 250 g/ha: evaluated after 13 days, 100=total damage to plant, 0=no damage to plant; for plant injury at 250 g/ha: 250 g ai/ha
Outline: as §2

[9] = system: giant foxtail (Setaria faberi); assay: Test G Post-Emergence Protocol; details: Setaria faberi, post-emergence, 312 h, read-out: Foxtail, Giant damage rating; for pest or weed control at 15.625 g/ha: 15.625 g ai/ha, evaluated after 13 days (100=total damage to plant; 0=no damage to plant); for pest or weed control at 62.5 g/ha: 62.5 g ai/ha; for pest or weed control at 62.5 g/ha / pest or weed control at 250 g/ha: evaluated after 13 days, 100=total damage to plant, 0=no damage to plant; for pest or weed control at 250 g/ha: 250 g ai/ha
Outline: as §2

[10] = system: ivy-leaved morning glory (Ipomoea hederacea); assay: Test G Post-Emergence Protocol; details: Ipomoea, post-emergence, 312 h, read-out: Morningglory, Ivy-leaved damage rating; for pest or weed control at 15.625 g/ha: 15.625 g ai/ha, evaluated after 13 days (100=total damage to plant; 0=no damage to plant); for pest or weed control at 62.5 g/ha: 62.5 g ai/ha; for pest or weed control at 62.5 g/ha / pest or weed control at 250 g/ha: evaluated after 13 days, 100=total damage to plant, 0=no damage to plant; for pest or weed control at 250 g/ha: 250 g ai/ha
Outline: as §2

[11] = system: redroot pigweed (Amaranthus retroflexus); assay: Test G Post-Emergence Protocol; details: Amaranthus retroflexus, post-emergence, 312 h, read-out: Pigweed, Redroot damage rating; for pest or weed control at 15.625 g/ha: 15.625 g ai/ha, evaluated after 13 days (100=total damage to plant; 0=no damage to plant); for pest or weed control at 62.5 g/ha: 62.5 g ai/ha; for pest or weed control at 62.5 g/ha / pest or weed control at 250 g/ha: evaluated after 13 days, 100=total damage to plant, 0=no damage to plant; for pest or weed control at 250 g/ha: 250 g ai/ha
Outline: as §2

[12] = system: velvetleaf (Abutilon theophrasti); assay: Test G Post-Emergence Protocol; details: Abutilon theophrasti, post-emergence, 312 h, read-out: Velvetleaf damage rating; for pest or weed control at 15.625 g/ha: 15.625 g ai/ha, evaluated after 13 days (100=total damage to plant; 0=no damage to plant); for pest or weed control at 62.5 g/ha: 62.5 g ai/ha; for pest or weed control at 62.5 g/ha / pest or weed control at 250 g/ha: evaluated after 13 days, 100=total damage to plant, 0=no damage to plant; for pest or weed control at 250 g/ha: 250 g ai/ha
Outline: as §2

Row | Compound | pest or weed control at 15.625 g/ha [1] | pest or weed control at 62.5 g/ha [1] | pest or weed control at 250 g/ha [1] | plant injury at 15.625 g/ha (corn (Zea mays) [2]) | plant injury at 62.5 g/ha (corn (Zea mays) [2]) | plant injury at 250 g/ha (corn (Zea mays) [2]) | pest or weed control at 15.625 g/ha [3] | pest or weed control at 62.5 g/ha [3] | pest or weed control at 250 g/ha [3] | pest or weed control at 15.625 g/ha [4] | pest or weed control at 62.5 g/ha [4] | pest or weed control at 250 g/ha [4] | pest or weed control at 15.625 g/ha [5] | pest or weed control at 62.5 g/ha [5] | pest or weed control at 250 g/ha [5] | pest or weed control at 15.625 g/ha [6] | pest or weed control at 62.5 g/ha [6] | pest or weed control at 250 g/ha [6] | pest or weed control at 15.625 g/ha [7] | pest or weed control at 62.5 g/ha [7] | further results
1 | CN1C[C@H](c2ccc(C#N)c(C(F)(F)F)c2)[C@@H](C(=O)Nc2ccccc2S(C)(=O)=O)C1=O (racemic) [Compound 1796] | 0% | 0% | 0% | 0% | 0% | 0% | 0% | 0% | 0% | 0% | 0% | 0% | 0% | 0% | 20% | 0% | 0% | 10% | 0% | 0% | pest or weed control at 250 g/ha [7]: 0%; plant injury at 15.625 g/ha (corn (Zea mays) [8]): 0%; plant injury at 62.5 g/ha (corn (Zea mays) [8]): 0%; plant injury at 250 g/ha (corn (Zea mays) [8]): 0%; pest or weed control at 15.625 g/ha [9]: 0%; pest or weed control at 62.5 g/ha [9]: 0%; pest or weed control at 250 g/ha [9]: 0%; pest or weed control at 15.625 g/ha [10]: 0%; pest or weed control at 62.5 g/ha [10]: 10%; pest or weed control at 250 g/ha [10]: 10%; pest or weed control at 15.625 g/ha [11]: 0%; pest or weed control at 62.5 g/ha [11]: 10%; pest or weed control at 250 g/ha [11]: 20%; pest or weed control at 15.625 g/ha [12]: 0%; pest or weed control at 62.5 g/ha [12]: 0%; pest or weed control at 250 g/ha [12]: 0%
2 | CN1C[C@H](c2cc(Cl)cc(C(F)(F)F)c2)[C@@H](C(=O)Nc2ccccc2S(C)(=O)=O)C1=O (racemic) [Compound 1797] | 40% | 60% | 80% | 10% | 50% | 70% | 60% | 80% | 90% | 0% | 10% | 20% | 0% | 0% | 60% | 0% | 20% | 70% | 30% | 70% | pest or weed control at 250 g/ha [7]: 80%; plant injury at 15.625 g/ha (corn (Zea mays) [8]): 10%; plant injury at 62.5 g/ha (corn (Zea mays) [8]): 60%; plant injury at 250 g/ha (corn (Zea mays) [8]): 70%; pest or weed control at 15.625 g/ha [9]: 50%; pest or weed control at 62.5 g/ha [9]: 80%; pest or weed control at 250 g/ha [9]: 80%; pest or weed control at 15.625 g/ha [10]: 0%; pest or weed control at 62.5 g/ha [10]: 40%; pest or weed control at 250 g/ha [10]: 80%; pest or weed control at 15.625 g/ha [11]: 30%; pest or weed control at 62.5 g/ha [11]: 70%; pest or weed control at 250 g/ha [11]: 80%; pest or weed control at 15.625 g/ha [12]: 60%; pest or weed control at 62.5 g/ha [12]: 80%; pest or weed control at 250 g/ha [12]: 90%
3 | CN1C[C@H](c2cccc(C(F)F)c2)[C@@H](C(=O)Nc2ccccc2S(C)(=O)=O)C1=O (racemic) [Compound 1800] | 10% | 40% | 80% | 0% | 0% | 0% | 20% | 70% | 90% | 0% | 0% | 0% | 10% | 20% | 10% | 0% | 10% | 0% | 0% | 10% | pest or weed control at 250 g/ha [7]: 80%; plant injury at 15.625 g/ha (corn (Zea mays) [8]): 0%; plant injury at 62.5 g/ha (corn (Zea mays) [8]): 0%; plant injury at 250 g/ha (corn (Zea mays) [8]): 0%; pest or weed control at 15.625 g/ha [9]: 0%; pest or weed control at 62.5 g/ha [9]: 20%; pest or weed control at 250 g/ha [9]: 70%; pest or weed control at 15.625 g/ha [10]: 0%; pest or weed control at 62.5 g/ha [10]: 10%; pest or weed control at 250 g/ha [10]: 20%; pest or weed control at 15.625 g/ha [11]: 0%; pest or weed control at 62.5 g/ha [11]: 10%; pest or weed control at 250 g/ha [11]: 10%; pest or weed control at 15.625 g/ha [12]: 0%; pest or weed control at 62.5 g/ha [12]: 0%; pest or weed control at 250 g/ha [12]: 0%
